Assay results published in patent US20060287316A1, “METHOD FOR IMPROVING PHARMACOKINETICS OF PROTEASE INHIBITORS AND PROTEASE INHIBITOR PRECURSORS” (priority 2005, published 2006).

Test: Pharmacokinetics of PL-100 and PL-461 in rats
Format: in vivo, Sprague Dawley rats (Rattus norvegicus)
Conditions: 5 mg/kg i.v., female rats
Protocol: Animal tested are Sprague Dawley rats (species Rattus norvegicus) of 6-7 weeks old at the start of dosing and were obtained from Charles River (Montreal, Canada). The study usually comprises about 6 animals per groups. […] The rats were fasted 3 h. before dosing and 3 h. after dosing. The formulations are prepared as indicated below. The solutions are stable at room temperature over a week and are covered with aluminum foil to avoid lights. […] The dosing volume for all formulations is 2 mL per kg body weight. Blood sample was collected at 15 min, 30 min, 45 min, 1 […] after the dosing. Blood samples were centrifuged to separate the plasma and separated plasma samples were placed into cryovials and frozen at -80° C. for further analysis. Plasma samples together with standards and quality control samples were treated by protein precipitation and then analyzed by HPLC-MS. […] The PK profile was obtained by administration of the test drugs; PL-100 and PL-461 in rats. […] The pharmacokinetic parameters of PL-100 and PL-461 in rats** was compared.

[1] = Sprague Dawley, rat, plasma, iv

## COC(=O)N[C@H](C(=O)NCCCC[C@@H](CO)N(CC(C)C)S(=O)(=O)c1ccc(N)cc1)C(c1ccccc1)c1ccccc1 [PL-100, (1S,5S)-(1-{5-[(4-amino-benzenesulfonyl)-isobutyl-amino]-6-hydroxy-hexylcarbamoyl}-2,2-diphenyl-ethyl)-carbamic acid methyl ester]
  Cl_F: 58.3 mL/min/kg
  Tlast: 6 h
  Vz_F: 6.1 L/kg
  λz: 0.52 h⁻¹
Sprague Dawley, rat, plasma, intravenous, read-out: Clast
  concentration at 6 hr: 44 ng/mL
[1]
  AUC(0-inf): 1430 ng·h/mL
  AUC(0-t): 1370 ng·h/mL
  Cmax: 1800 ng/mL
  Tmax: 6 min
Sprague Dawley, rat, plasma, iv, read-out: T½ (converted)
  half-life: 72 min
